Measurements reported in patent publication US20160075682A1, “INHIBITORS OF NICOTINAMIDE PHOSPHORIBOSYLTRANSFERASE, COMPOSITIONS, PRODUCTS AND USES THEREOF” (UNIVERSITÀ DEGLI STUDI DEL PIEMONTE ORIENTALE "AMEDEO …, priority 2013, published 2016).

Assays:
[1] = test system: spinal cord injury in male adult CD1 mice; assay: Spinal cord injury by clip compression, motor function; assay type: in vivo; conditions: i.p. one and 6 hours post injury
Method: Male adult CD1 mice (25-30 g, Harlan Nossan, Milan, Italy) were used for all studies. Mice were housed in individual cages (5 for each group) and maintained under 12:12 light-dark cycle at 21±1° C. and 50±5% humidity.
Spinal cord injury (SCI) was induced in male adult mice by the clip compression technique (Genovese et al. J. Pharmacol. Exp. Ther. 2008a, 325, 100-14). SHAM-operated animals were taken as control. Drugs were given i.p. one and 6 hours post injury. Animal care was in compliance with Italian regulations on protection of animals used for experimental and other scientific purpose (D.M. 116192) and with the EEC regulations (O.J. of E.C. L 358/1 Dec. 18, 1986). Animals were sacrificed at post-injury (at least five animals/experimental group were analysed).
The motor function of mice subjected to SCI was assessed once a day for 7 days after injury.
The evaluations were made by two blind observers for all analyzed groups.
Briefly, the BMS is a nine-point scale that pro vides a gross indication of locomotor ability and determines the phases of locomotor recovery and features of locomotion. The BMS score was determined for ten mice in each group. Spinal cord tissues were taken at 24 hours after trauma. Tissue was used for histological grading of the damage or for immunocytochemistry with inflammation, cell death or autophagy markers.
As previously described, the spinal cord of male adult CD1 mice was injured by the clip compression technique, compound of formula (I) was administered and the motor function was assessed.

[2] = Microsomal stability with rat liver microsomes; assay type: in vitro ADME, Male Wistar rat; conditions: 50 μM substrate, 1.0 mg/mL protein, 60 minutes at 37° C., pH 7.4
Method: Male Wistar rat liver microsomes (RLM), (protein concentration: 25 mg/ml determined using the Omura and Sato method, total P450: 0.64 nmol/mg protein) were used throughout this study and prepared using an internal protocol. The cryopreserved pooled human liver microsomes (HLM), (pooled mixed sex, ten individual donors, protein concentration: 20 mg/ml, total P450: 0.36 nmol/mg) were purchased from BD Gentest™ (Woburn, Mass.) and used throughout this study.
The standard incubation mixture (1 ml final volume), was carried out in a 50 mM TRIS (Tris[hydroxymethyl]aminomethane) buffer (pH 7.4) containing 10 μl of acetonitrile (1% of total volume), and 50 μM substrate compounds. After pre-equilibration of the mixture, an appropriate volume of RLM or HLM suspension was added to give a final protein concentration of 1.0 mg/mL. The mixture was shaken for 60 minutes at 37° C. Control incubations were carried out without microsomes. Each incubation was stopped by addition of 1 ml ice-cold acetonitrile, vortexed and centrifuged at 11,000 r.p.m. for 5 min. The supernatants were analysed by LC-DAD-UV and LC-ESI-MS systems to determine the metabolic stability (% substrate residue) and the structure of metabolites respectively (Table 1).
A Shimadzu HPLC system (Shimadzu, Kyoto, Japan), consisting of two LC-10AD Vp module pumps, an SLC-10A Vp system controller, an SIL-10AD Vp autosampler, and a DGU-14-A on-line degasser were used for the analysis. Chromatographic separation was performed on a Phenomenex Luna C18(2) 150×4.6 mm (5 μm) (Phenomenex srl, Castel Bolognese, Italy) as a stationary phase protected by a C18 SecurityGuard (Phenomenex srl, Castel Bolognese, Italy). The SPD-M10Avp photodiode array detector was used to detect the analytes. LC-Solution 1.24 software was used to process the chromatograms. Aliquots (20 μL) of supernatants obtained from incubations were injected onto the HPLC system and eluted with a mobile phase (flow rate 1.0 mL/min) consisting of a A: 0.5% formic acid solution, B: acetonitrile/methanol 8:2. A Thermo Finningan LCQ Deca XP plus system equipped with a quaternary pump, a Surveyor AS autosampler, a Surveyor photodiode array detector and a vacuum degasser was used for LC/MS analyses (Thermo Electron Corporation, Waltham, Mass.). All the chromatographic separations were performed on a Phenomenex Luna C18(2)150×2 mm (4 μm) (kept at a 35° C.) as a stationary phase protected by a C18 SecurityGuard (Phenomenex srl, Castel Bolognese, Italy). Aliquots (2.0 μl) of supernatants obtained from incubations were injected onto the system and eluted with a mobile phase (flow rate 0.2 ml/min) consisting of a A: 0.2% formic acid solution, B: acetonitrile/methanol 8:2. The eluate was injected into the electrospray ion source (ESI) and MS and MS^n spectra were acquired and processed using Xcalibur® software. The operating conditions on the ion trap mass spectrometer were as follows: Positive mode, spray voltage, 5.30 kV; source current, 80 μA; capillary temperature, 350° C.; capillary voltage, 21.00 V; tube lens offset, 15.00 V; multipole 1 offset, −5.75 V; multipole 2 offset, −9.00 V; sheath gas flow (N2), 55 Auxiliary Units.

[3] = test system: DNBS-induced colitis in BALB/c mice; assay: Experimental colitis induced by DNBS; assay type: in vivo; conditions: i.p.; for MPO in the colon / NAMPT in the colon / TNFalpha in the colon / VEGF in the colon: DNBS-treated mice, between 20 mg/Kg and 500 mg/Kg, compared to untreated colitis mice; for protection from DNBS-induced colitis as assessed by the macroscopic damage score: doses of between 20 mg/Kg and 500 mg/Kg
Method: Animal work was authorized by the local ethical committee for animal studies (Università del Piemonte Orientale). BALB/c mice (Harlan Nossan, Milan, Italy) were anesthetized by enflurane. Dinitrobenzene sulfonic acid (DNBS; 4 mg in 100 μl of 50% ethanol) was injected into the rectum through a catheter inserted 4.5 cm proximally to the anus. Carrier alone (100 μl of 50% ethanol) was administered in control experiments. Thereafter, the animals were kept for 15 minutes in a Trendelenburg position to avoid reflux. Treatment with either solvent alone or drugs was done immediately after induction and thereafter twice a day. […] On Day 4, the animals were weighed and anaesthetized with chloral hydrate, and the abdomen was opened by a midline incision. The colon was removed, freed from surrounding tissues, opened along the antimesenteric border, rinsed, weighed, and processed for histology, biochemical measurements and immunohistochemistry. Colon damage (macroscopic damage score) was evaluated and scored by two independent observers according to the following criteria: 0, no damage; 1, localized hyperemia without ulcers; 2, linear ulcers with no significant inflammation; 3, linear ulcers with inflammation at one site; 4, two or more major sites of inflammation and ulceration extending >1 cm along the length of the colon; and 5-8, one point is added for each centimeter of ulceration beyond an initial 2 cm. Biochemical and histological analysis also included TNFalpha measurements and myeloperoxidase (MPO) measurements by ELISA assay, and VEGF, NAMPT, COX-2 measurements by immunoblotting. (Esposito E, Mazzon E, Paterniti I, Dal Toso R, Pressi G, Caminiti R, Cuzzocrea S. PPAR-alpha Contributes to the Anti-Inflammatory Activity of Verbascoside in a Model of Inflammatory Bowel Disease in Mice. PPAR Res. 2010; 2010:917312).
As previously described, the colon of DNBS- or dextran treated animals was removed after the induction of colitis. Compounds of formula (I) were administered intraperitoneally (i.p.).

For `c1ccc(-c2ccccc2OCCCCCCn2cc(-c3cccnc3)nn2)cc1` [3-(1-(6-([1,1′-biphenyl]-2-yloxy)hexyl)-1H-1,2,3-triazol-4-yl)pyridine], the motor recovery [1] was “partial motor recovery”, the protection from injury [1] was “partially protect from injury” and the “RLM stability % substrate residue (area peak)” value [2] was >98%. For the same compound, the “MPO in the colon” value [3] was “able to reduce”, the “NAMPT in the colon” value [3] was “able to reduce” and the “TNFalpha in the colon” value [3] was “able to reduce”. For the same compound, the “VEGF in the colon” value [3] was “able to reduce” and the “protection from DNBS-induced colitis as assessed by the macroscopic damage score” value [3] was “able to protect”.
With `O=C(NCCCCCCCn1cc(-c2cccnc2)nn1)c1ccccc1-c1ccccc1` [N-(7-(4-(pyridin-3-yl)-1H-1,2,3-triazol-1-yl)heptyl)-[1,1′-biphenyl]-2-carboxamide] the motor recovery [1] was “partial motor recovery”, the protection from injury [1] was “partially protect from injury” and the “RLM stability % substrate residue (area peak)” value [2] was >99%. The “MPO in the colon” value [3] was “able to reduce”, the “NAMPT in the colon” value [3] was “able to reduce” and the “TNFalpha in the colon” value [3] was “able to reduce”. The “VEGF in the colon” value [3] was “able to reduce” and the “protection from DNBS-induced colitis as assessed by the macroscopic damage score” value [3] was “able to protect”.
